Assay results taken from patent US20240043386A1, “Modulators of the Cystic Fibrosis Transmembrane Conductance Regulator Protein and Methods of Use” (AbbVie Global Enterprises Ltd., priority 2021, published 2024).
pEC50: −log10 of the molar value. Like-named read-outs stand apart in the source and are kept apart here.

Tests used:
F508del/F508del CFTR = target: T1, F508del/F508del CFTR (Homo sapiens, UniProt P13569, DEL508-508); test: Trans-Epithelial Current Clamp (TECC) assay using primary human bronchial epithelial cells; format: cell-based; conditions: for Emax (% Dual): maximum percent activity relative to positive control (co-corrector 0.15 μM + potentiator 0.45 μM = 100%), primary hBE cells F508del/F508del; for pEC50: primary hBE cells homozygous F508del/F508del, test C2 corrector with co-corrector and potentiator, 18-24 hours at 37° C., equivalent CFTR current (IEQ)/AUC
T1 construct: cells isolated from CF patients with the homozygous mutation; endogenous in cells; host or cells: primary human bronchial epithelial (hBE) cells from CF patients homozygous for F508del
T1 sequence (P13569 with tags, fused parts or gaps DEL508-508): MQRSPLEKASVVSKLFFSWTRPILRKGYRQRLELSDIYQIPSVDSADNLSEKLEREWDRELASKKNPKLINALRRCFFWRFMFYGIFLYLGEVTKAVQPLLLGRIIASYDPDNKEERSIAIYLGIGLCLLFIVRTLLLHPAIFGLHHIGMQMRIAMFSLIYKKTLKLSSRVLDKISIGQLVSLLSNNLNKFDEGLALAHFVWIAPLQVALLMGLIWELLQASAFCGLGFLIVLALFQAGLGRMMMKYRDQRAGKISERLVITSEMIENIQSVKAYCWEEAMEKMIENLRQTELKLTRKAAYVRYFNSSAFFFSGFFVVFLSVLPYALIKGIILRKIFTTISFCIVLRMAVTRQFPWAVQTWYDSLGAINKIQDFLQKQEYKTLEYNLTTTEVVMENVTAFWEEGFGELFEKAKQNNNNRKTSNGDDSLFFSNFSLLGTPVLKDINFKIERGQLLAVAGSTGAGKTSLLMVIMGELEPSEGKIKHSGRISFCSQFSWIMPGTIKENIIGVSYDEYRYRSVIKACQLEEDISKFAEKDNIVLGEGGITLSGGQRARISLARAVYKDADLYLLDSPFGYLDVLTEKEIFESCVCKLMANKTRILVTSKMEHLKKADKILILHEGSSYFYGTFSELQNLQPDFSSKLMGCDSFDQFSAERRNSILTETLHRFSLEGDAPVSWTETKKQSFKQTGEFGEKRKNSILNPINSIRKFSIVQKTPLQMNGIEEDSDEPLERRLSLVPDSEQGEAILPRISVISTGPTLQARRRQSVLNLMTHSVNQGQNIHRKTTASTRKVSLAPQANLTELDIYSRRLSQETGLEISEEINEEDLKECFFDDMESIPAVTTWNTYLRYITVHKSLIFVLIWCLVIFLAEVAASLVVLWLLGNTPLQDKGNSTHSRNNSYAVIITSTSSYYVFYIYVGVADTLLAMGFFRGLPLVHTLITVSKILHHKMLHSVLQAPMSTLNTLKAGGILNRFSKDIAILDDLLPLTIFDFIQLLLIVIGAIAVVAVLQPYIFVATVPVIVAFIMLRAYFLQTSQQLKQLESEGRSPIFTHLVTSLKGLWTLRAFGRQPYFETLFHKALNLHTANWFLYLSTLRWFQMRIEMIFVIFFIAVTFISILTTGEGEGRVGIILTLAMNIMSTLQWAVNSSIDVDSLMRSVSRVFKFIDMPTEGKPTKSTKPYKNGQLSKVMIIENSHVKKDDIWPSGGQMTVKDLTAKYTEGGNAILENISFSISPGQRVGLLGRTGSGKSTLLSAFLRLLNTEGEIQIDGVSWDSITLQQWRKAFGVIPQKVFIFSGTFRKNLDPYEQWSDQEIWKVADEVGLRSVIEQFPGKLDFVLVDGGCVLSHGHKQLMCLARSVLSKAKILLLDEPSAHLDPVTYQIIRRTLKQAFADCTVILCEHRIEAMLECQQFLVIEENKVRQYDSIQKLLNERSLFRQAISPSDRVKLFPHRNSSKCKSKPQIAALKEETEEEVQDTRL
In short: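 Readout is the equivalent CFTR current (IEQ, from offset-corrected VT and RT) plus AUC from forskolin peak to bumetanide addition, recorded on TECC-24 at 36.5° C. Beforehand, homozygous F508del hBE cultures received correctors with co-corrector and potentiator basolaterally for 18-24 h at 37° C.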

F508delCFTR = target: T2, F508delCFTR (Homo sapiens, UniProt P13569, DEL508-508); test: Cell Surface Expression-Horse Radish Peroxidase (CSE-HRP) assay in CFBE41o-F508delCFTR-HRP cells; format: cell-based; conditions: for pEC50: CFBE41o-F508delCFTR-HRP cells, 18-24 hours at 33° C., luminescence; for Maximum % activity (with co-corrector) / Maximum % activity (without co-corrector): normalized to on-plate positive control corrector (2 μM)
T2 construct: expressed in transfected cells; host or cells: CFBE41o- human lung-derived epithelial cell line, doxycycline-inducible expression
T2 sequence (P13569 with tags, fused parts or gaps DEL508-508): as above
In short: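 Test compounds were tested alone or alongside a co-corrector (2 μM), 8-point 3-fold series from 20 or 30 μM, for 18–24 h at 33 °C on doxycycline-induced CFBE41o-F508delCFTR-HRP cells. After washing, luminol luminescence reported cell-surface HRP-tagged CFTR, normalized to the positive control (% activity). EC50 was fitted with a variable Hill slope sigmoid from triplicate plates; Z′ >0.5 required.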

[1] = with co-corrector (2 μM), read-out: EC50 (with co-corrector)
[2] = without co-corrector, read-out: EC50 (without co-corrector)

Row | Emax (% Dual) (F508del/F508del CFTR) | pEC50 (F508del/F508del CFTR) | pEC50 (F508delCFTR; [1]) | pEC50 (F508delCFTR; [2]) | Maximum % activity (with co-corrector) (F508delCFTR; with co-corrector (2 μM)) [%] | Maximum % activity (without co-corrector) (F508delCFTR; without co-corrector) [%] | Structure (SMILES)
1 | 459 | 8.54 | 6.41 | 6.11 | – | – | COc1ccc(C)cc1[C@]1(C(=O)NS(=O)(=O)c2cccc3nc(C)ccc23)C[C@@H]1c1ccccc1C [Example 34, (1S,2R)-1-(2-methoxy-5-methylphenyl)-2-(2-methylphenyl)-N-(2-methylquinoline-5-sulfonyl)cyclopropane-1-carboxamide]
2 | 272 | 8.54 | 6.09 | 5.62 | – | – | COc1cccc([C@H]2C[C@@]2(C(=O)NS(=O)(=O)c2cccc3nc(C)ccc23)c2cc(C)ccc2OC)n1 [Example 43, (1s,2s)-1-(2-methoxy-5-methylphenyl)-2-(6-methoxypyridin-2-yl)-N-(2-methylquinoline-5-sulfonyl)cyclopropane-1-carboxamide]
3 | 193 | 7.78 | 6.06 | 5.85 | 982 | 384 | COc1cccc([C@@H]2C[C@]2(C(=O)NS(=O)(=O)c2cccc3nc(C)ccc23)c2cc(C)ccc2OC)n1 [Example 44, (1R,2R)-1-(2-methoxy-5-methylphenyl)-2-(6-methoxypyridin-2-yl)-N-(2-methylquinoline-5-sulfonyl)cyclopropane-1-carboxamide]
4 | 341 | 8.23 | 6.47 | 6.00 | – | – | CCOc1cccc([C@H]2C[C@@]2(C(=O)NS(=O)(=O)c2cccc3nc(C)ccc23)c2cc(C)ccc2OC)n1 [Example 55, (1S,2S)-2-(6-ethoxypyridin-2-yl)-1-(2-methoxy-5-methylphenyl)-N-(2-methylquinoline-5-sulfonyl)cyclopropane-1-carboxamide]
5 | 290 | 8.07 | 6.41 | 6.05 | 917 | 370 | CCOc1cccc([C@@H]2C[C@]2(C(=O)NS(=O)(=O)c2cccc3nc(C)ccc23)c2cc(C)ccc2OC)n1 [Example 56, (1R,2R)-2-(6-ethoxypyridin-2-yl)-1-(2-methoxy-5-methylphenyl)-N-(2-methylquinoline-5-sulfonyl)cyclopropane-1-carboxamide]
6 | 253 | 7.72 | 6.29 | 5.95 | – | – | COc1ccc(C)cc1[C@]1(C(=O)NS(=O)(=O)c2cccc3nc(C)ccc23)C[C@@H]1c1cccc(C(C)C)n1 [Example 57, (1S,2S)-1-(2-methoxy-5-methylphenyl)-N-(2-methylquinoline-5-sulfonyl)-2-[6-(propan-2-yl)pyridin-2-yl]cyclopropane-1-carboxamide]
7 | 246 | 7.50 | 5.67 | 5.41 | – | – | CCOc1ccc([C@H]2C[C@@]2(C(=O)NS(=O)(=O)c2cccc3nc(C)ccc23)c2cc(C)ccc2OC)cn1 [Example 58, (1S,2R)-2-(6-ethoxypyridin-3-yl)-1-(2-methoxy-5-methylphenyl)-N-(2-methylquinoline-5-sulfonyl)cyclopropane-1-carboxamide]
8 | 161 | 7.20 | 6.11 | 5.82 | – | 438 | CCOc1ccc([C@@H]2C[C@]2(C(=O)NS(=O)(=O)c2cccc3nc(C)ccc23)c2cc(C)ccc2OC)cn1 [Example 59, (1R,2S)-2-(6-ethoxypyridin-3-yl)-1-(2-methoxy-5-methylphenyl)-N-(2-methylquinoline-5-sulfonyl)cyclopropane-1-carboxamide]
9 | 413 | 8.17 | 5.99 | 5.67 | – | – | COc1ccc(C)cc1[C@]1(C(=O)NS(=O)(=O)c2cccc3nc(C)ccc23)C[C@@H]1c1cccc(N(C)C)n1 [Example 60, (1S,2S)-2-[6-(dimethylamino)pyridin-2-yl]-1-(2-methoxy-5-methylphenyl)-N-(2-methylquinoline-5-sulfonyl)cyclopropane-1-carboxamide]
10 | 174 | 7.68 | 5.79 | 5.48 | 989 | 492 | COc1ccc(C)cc1[C@]1(C(=O)NS(=O)(=O)c2cccc3nc(C)ccc23)C[C@@H]1c1ccc(C(C)C)nc1 [Example 67, (1S,2R)-1-(2-methoxy-5-methylphenyl)-N-(2-methylquinoline-5-sulfonyl)-2-[6-(propan-2-yl)pyridin-3-yl]cyclopropane-1-carboxamide]
11 | 217 | 7.68 | 5.95 | 5.56 | – | 657 | COc1ccc(C)cc1[C@]1(C(=O)NS(=O)(=O)c2cccc3nc(C)ccc23)C[C@@H]1c1ccc(N(C)C)nc1 [Example 68, (1S,2R)-2-[6-(dimethylamino)pyridin-3-yl]-1-(2-methoxy-5-methylphenyl)-N-(2-methylquinoline-5-sulfonyl)cyclopropane-1-carboxamide]
12 | 111 | < 6.52 | 5.46 | 5.22 | 495 | 170 | COc1ccc(C)cc1[C@]1(C(=O)NS(=O)(=O)c2cccc3nc(C)ccc23)C[C@@H]1c1ccc(C(C)C)nn1 [Example 69, (1S,2S)-1-(2-methoxy-5-methylphenyl)-N-(2-methylquinoline-5-sulfonyl)-2-[6-(propan-2-yl)pyridazin-3-yl]cyclopropane-1-carboxamide]
13 | 291 | 7.93 | 5.59 | 5.37 | – | 482 | COc1ccc(C)cc1[C@]1(C(=O)NS(=O)(=O)c2cccc3nc(C)ccc23)C[C@@H]1c1ccc(C(F)F)nc1 [Example 70, (1S,2R)-2-[6-(difluoromethyl)pyridin-3-yl]-1-(2-methoxy-5-methylphenyl)-N-(2-methylquinoline-5-sulfonyl)cyclopropane-1-carboxamide]
14 | 359 | 7.87 | 5.81 | 5.48 | – | 651 | COc1ccc([C@H]2C[C@@]2(C(=O)NS(=O)(=O)c2cccc3nc(C)ccc23)c2cc(C)ccc2OC)c(C)n1 [Example 72, (1S,2R)-1-(2-methoxy-5-methylphenyl)-2-(6-methoxy-2-methylpyridin-3-yl)-N-(2-methylquinoline-5-sulfonyl)cyclopropane-1-carboxamide]

Row | Structure (SMILES) | Emax (% Dual) (F508del/F508del CFTR) | pEC50 (F508del/F508del CFTR) | pEC50 (F508delCFTR; [1]) | pEC50 (F508delCFTR; [2]) | Maximum % activity (with co-corrector) (F508delCFTR; with co-corrector (2 μM)) [%] | Maximum % activity (without co-corrector) (F508delCFTR; without co-corrector) [%]
15 | COc1ccc(C)cc1[C@@]1(C(=O)NS(=O)(=O)c2cccc3nc(C)ccc23)C[C@H]1c1cccnc1OC [Example 49, (1R,2S)-1-(2-methoxy-5-methylphenyl)-2-(2-methoxypyridin-3-yl)-N-(2-methylquinoline-5-sulfonyl)cyclopropane-1-carboxamide] | 321 | 7.45 | 5.93 | 5.70 | – | 453
